Experimental data published in US20260306502A1, “MITOCHONDRIAL UNCOUPLERS FOR TREATMENT OF METABOLIC DISEASES AND CANCER” (Mito Biopharma, LLC, priority 2022, published 2026).

What was measured:
[1] = tested on: cultured mammalian cells, the NIH-3T3 cells, C2C12 cells, and other mammalian cell lines; test: Mitochondrial membrane potential (MMP) assay, TMRE (or DilC1(5)) staining, related to OCR induction; type: cell-based; conditions: ratio of concentration leading to 10% MMP retention (90% MMP loss, TMRE) to minimal concentration leading to OCR increase
Description: Mitochondrial membrane potential assay was performed using the standard TMRE (tetramethylrhodamine ethyl ester) staining method with cultured mammalian cells, the NIH-3T3 cells, C2C12 cells, and other mammalian cell lines. Cells were seeded in 6-well plates and cultured in DMEM medium supplemented with 10% fetal bovine serum and 2 mM glutamine. Cells were allowed to grow to the logarithmic growth phase prior to experiments. The cells were treated with each individual compound at various concentrations for two hours, followed by staining with TMRE at a final concentration of 100 nM for 15 minutes. The cells were then washed once with PBS, and examined under fluorescence microscopy. Cells treated with various concentrations of niclosamide ethanolamine were used as a positive control.
In some examples, mitochondrial membrane potential was measured with DilC1(5) staining. Briefly, DilC1(5) was added to the cells to 50 nM final concentration and the cells were incubated at 37° C., 5% CO2, for 15 to 30 minutes. Cells were washed once by adding 2 mL of warm phosphate-buffered saline (PBS). Mitochondrial staining was determined by fluorescence microscopy with 633 nm excitation using standard filters for far-red emission.
Using the ratio between C10% TMRE (the concentration at which 10% MMP remains, i.e. 90% MMP is lost) and Cmin-OCR (the concentration at which minimal OCR induction is observed), we categorized the MMP-retaining uncouplers into two groups.

C2C12 cells = test: Mitochondrial uncoupling activity by oxygen consumption rate (OCR) assay, Seahorse, in presence of oligomycin; type: cell-based, mouse; conditions: Mus musculus, C2C12; in the presence of oligomycin 2.5 μM; read-out: COCR-min: minimal concentration increasing OCR in the presence of oligomycin
Description: By definition, mitochondrial uncoupling is the decoupling of mitochondrial electron transport chain activity (mitochondrial oxidation) from ATP synthesis by mitochondrial ATP synthase. Technically, mitochondrial uncoupling activity is defined by the ability of a chemical compound to induce oxygen consumption of cells or isolated mitochondria in the presence of a mitochondrial ATP synthase inhibitor such as oligomycin. Accordingly, mitochondrial uncoupling activity was determined by oxygen consumption rate assay with a Seahorse XF96 or a Seahorse XF24 instrument following the vendor's instruction, using mouse myoblast C2C12 cells grown in a medium containing 10% fetal bovine serum. OCR was measured stepwise under the following conditions: first under normal growth conditions; then. OCR was measured after oligomycin was added to reach a final concentration of 2.5 μM); then OCR was measured after the compound was further added at varying concentrations. Finally, rotenone and antimycin A were added to confirm that the measurement was mitochondrial oxygen consumption (rotenone and […] mitochondrial electron transport chain inhibitors).
COCR-min the minimal concentration required for each compound to induce OCR in the presence of oligomycin, of disclosed compounds, was also determined by varying the final concentration of the compound added to the Seahorse OCR analysis experiment as described above (FIG. 2, varying testing compound concentration). Table 8 summarizes the mitochondrial uncoupling activity of disclosed compounds, as represented by COCR-min.

[2] = Metabolic stability assay in rat liver microsomes; type: in vitro ADME; conditions: 1 μM compound, 0.5 mg/ml microsomal protein, 37° C.; for half-life at 1 µM: rat, liver microsomes, read-out: Metabolic stability half-life (T1/2, min, rat liver microsome)
Description: The metabolic stability of the compounds was evaluated in incubation with rat liver microsomes.

[3] = PO pharmacokinetic study, oral exposure (Example B3); type: in vivo; conditions: blood, po; for AUC at 24 h: 10 mg/kg gavage
Description: The blood concentration of the compound was then determined at 0 (pre-dosing), 5 min, 15 min, 30 min, 1 hr, 2 hr, 4 hr, 8 hr, 24 hr time points by LC-MS/MS analysis (See Tables 1 and 2, vide supra).

[4] = tested on: high-fat diet (HFD)-induced diabetic mouse model; test: Efficacy in high-fat diet (HFD)-induced diabetic/fatty liver mouse model; type: in vivo; conditions: Mus musculus; HFD model, oral daily gavage; read-out: Efficacious dosage to reduce blood glucose in mouse models, oral daily gavage
Description: For HFD induced diabetic mouse model, C57Bl6 mice (male, n=6) were induced to obese and diabetic conditions by feeding high-fat diet (HFD, 60% fat calories, Research Diet, Inc. New Brunswick, NJ) for 3-4 months. […] During the 3-week period, the mice continued feeding HFD. […] The blood glucose levels were measured after an overnight fast, plasma insulin levels were tested after 5-6 hours fast, and the glycated HbA1c levels were determined in whole blood samples.
FIG. 15C and FIG. 15D show liver sections from mice fed HFD following 3 weeks of treatment with Compounds 25 and 64, respectively (P.O. dosing of 5 mg/kg, by daily gavage).
Experiments were similarly performed with other compounds, in either high-fat diet induced diabetes and fatty liver models, or in db/db mouse model, or in both, by daily oral gavage administration with low dosages.

Structure (SMILES)	C10%TMRE/Cmin-OCR [1]	also measured
COCc1cc(C(F)(F)F)cc2sc(NC(=O)c3cc(Cl)cc(C)c3O)nc12 [drawing 336]	[drawing 336]	
Cc1cc(Cl)cc(C(=O)Nc2nc3ccc(C(F)(F)F)cc3s2)c1O [drawing 324]	[drawing 324]	
Cc1cc(Cl)cc(C(=O)Nc2nc3c(COCc4ccc(F)cc4)cc(C(F)(F)F)cc3s2)c1O [Compound 83, 5-chloro-N-(4-(((4-fluorobenzyl)oxy)methyl)-6-(trifluoromethyl)benzo[d]thiazol-2-yl)-2-hydroxy-3-methylbenzamide]	~83	minimal effective concentration (C2C12 cells): < 5 µM
O=C(Nc1nc2ccc(C(F)(F)F)cc2s1)c1cc(Cl)ccc1O [drawing 306]	[drawing 306]	
Cc1cc(Cl)cc(C(=O)Nc2nc3ccc(C(F)(F)F)cc3s2)c1O [drawing 333]	[drawing 333]	
O=C(Nc1ccc(C(F)(F)F)nc1)c1cc(Cl)ccc1O	[drawing 354]	
COCCN(CCOC)Cc1cc(Cl)cc(C(=O)Nc2nc3ccc(C(F)(F)F)cc3s2)c1O [drawing 263]		half-life at 1 µM [2]: 0.467 h
O=C(Nc1nc2ccc(C(F)(F)F)cc2s1)c1cc(Cl)ccc1O [drawing 321]	[drawing 321]	
O=C(Nc1nc2ccc(C(F)(F)F)cc2s1)c1cc(Cl)ccc1O [drawing 309]	[drawing 309]	
Cc1cc(Cl)cc(C(=O)Nc2nc3ccc(C(F)(F)F)cc3s2)c1O [drawing 330]	[drawing 330]	
O=C(Nc1nc2ccc(C(F)(F)F)cc2s1)c1cc(Cl)cc(CN2CCOCC2)c1O		half-life at 1 µM [2]: 1.5 h
COCCOCc1cc(C(F)(F)F)cc2sc(NC(=O)c3cc(Cl)cc(C)c3O)nc12 [drawing 345]	[drawing 345]	
CS(=O)(=O)C1CCN(Cc2cc(Cl)cc(C(=O)Nc3nc4ccc(C(F)(F)F)cc4s3)c2O)C1 (stereo not shown) [Compound 37, 5-chloro-2-hydroxy-3-((3-(methylsulfonyl)pyrrolidin-1-yl)methyl)-N-(6-(trifluoromethyl)benzo[d]thiazol-2-yl)benzamide]	~37	minimal effective concentration (C2C12 cells): > 10 µM
O=C(Nc1nc2ccc(C(F)(F)F)cc2s1)c1cc(Cl)ccc1O [drawing 318]	[drawing 318]	
O=C(Nc1nc2ccc(C(F)(F)F)cc2s1)c1cc(Cl)cc(CN2CCCCC2)c1O [Compound 26, 5-chloro-2-hydroxy-3-(piperidin-1-ylmethyl)-N-(6-(trifluoromethyl)benzo[d]thiazol-2-yl)benzamide]		AUC at 24 h [3]: 10 to 30 µg·h/mL; minimal effective concentration (C2C12 cells): < 5 µM
COCc1cc(Cl)cc(C(=O)Nc2nc3ccc(C(F)(F)F)cc3s2)c1O [Compound 9, 5-chloro-2-hydroxy-3-(methoxymethyl)-N-(6-(trifluoromethyl)benzo[d]thiazol-2-yl)benzamide]		AUC(0-t) at 24 h ([3]; 10 mg/kg, 24 hr): 180 µg·h/mL; AUC at 24 h [3]: > 120 µg·h/mL; minimal effective concentration (C2C12 cells): < 5 µM
Cc1cc(Cl)cc(C(=O)Nc2nc3ccc(C(F)(F)F)cc3s2)c1O [drawing 327]	[drawing 327]	

Structure (SMILES)	C10%TMRE/Cmin-OCR [1]	also measured
CN(C)Cc1cc(Cl)cc(C(=O)Nc2nc3ccc(OC(F)(F)F)cc3s2)c1O		Metabolic stability half-life (T1/2, min, rat liver microsome) [2]: ∞
O=C(Nc1nc2ccc(C(F)(F)F)cc2s1)c1cc(Cl)ccc1O [drawing 315]	[drawing 315]	
O=C(Nc1nc2ccc(C(F)(F)F)cc2s1)c1cc(Cl)ccc1O [drawing 303]	[drawing 303]	
COCCOCc1cc(C(F)(F)F)cc2sc(NC(=O)c3cc(Cl)cc(CN4CCOCC4)c3O)nc12 [Compound 65, 5-chloro-2-hydroxy-N-(4-((2-methoxyethoxy)methyl)-6-(trifluoromethyl)benzo[d]thiazol-2-yl)-3-(morpholinomethyl)benzamide]		AUC at 24 h [3]: 60 to 120 µg·h/mL; minimal effective concentration (C2C12 cells): < 5 µM
CN(C)Cc1cc(Cl)cc(C(=O)Nc2nc3ccc(C(F)(F)F)cc3s2)c1O		half-life at 1 µM [2]: 14.7 h
O=C(Nc1nc2ccc(C(F)(F)F)cc2s1)c1cc(Cl)cc(CN2CCC2)c1O [Compound 27, 3-(azetidin-1-ylmethyl)-5-chloro-2-hydroxy-N-(6-(trifluoromethyl)benzo[d]thiazol-2-yl)benzamide]		AUC at 24 h [3]: 30 to 60 µg·h/mL; minimal effective concentration (C2C12 cells): < 5 µM
COCCOCc1cc(C(F)(F)F)cc2sc(NC(=O)c3cc(Cl)cc(C)c3O)nc12 [drawing 339]	[drawing 339]	
COCCOCc1cc(F)cc(C(=O)Nc2nc3ccc(C(F)(F)F)cc3s2)c1O [Compound 43]	~43	minimal effective concentration (C2C12 cells): < 5 µM
O=C(Nc1nc2ccc(C(F)(F)F)cc2s1)c1cc(Cl)cc(C2CCCO2)c1O (stereo not shown) [Compound 15, 5-chloro-2-hydroxy-3-(tetrahydrofuran-2-yl)-N-(6-(trifluoromethyl)benzo[d]thiazol-2-yl)benzamide]		AUC at 24 h [3]: > 120 µg·h/mL; minimal effective dose [4]: 2.5 mg/kg; minimal effective concentration (C2C12 cells): < 5 µM
N#CC1CCN(Cc2cc(Cl)cc(C(=O)Nc3nc4ccc(C(F)(F)F)cc4s3)c2O)C1 (stereo not shown) [Compound 36, 5-chloro-3-((3-cyanopyrrolidin-1-yl)methyl)-2-hydroxy-N-(6-(trifluoromethyl)benzo[d]thiazol-2-yl)benzamide]	~36	minimal effective concentration (C2C12 cells): < 5 µM
O=C(Nc1nc2ccc(C(F)(F)F)cc2s1)c1cc(Cl)ccc1O [drawing 300]	[drawing 300]	
O=C(Nc1nc2ccc(C(F)(F)F)cc2s1)c1cc(Cl)ccc1O [drawing 312]	[drawing 312]	
O=C(Nc1nc2ccc(C(F)(F)F)cc2s1)c1cc(Cl)cc(CN2CCCCC2)c1O [drawing 264]		half-life at 1 µM [2]: 1.53 h
O=C(Nc1nc2ccc(C(F)(F)F)cc2s1)c1cc(Cl)cc(C2CCOC2)c1O (stereo not shown) [Compound 14, 5-chloro-2-hydroxy-3-(tetrahydrofuran-3-yl)-N-(6-(trifluoromethyl)benzo[d]thiazol-2-yl)benzamide]		AUC at 24 h [3]: > 120 µg·h/mL; minimal effective concentration (C2C12 cells): < 5 µM
COCCOCc1cc(C(F)(F)F)cc2sc(NC(=O)c3cc(Cl)cc(C)c3O)nc12 [drawing 348]	[drawing 348]	
COCCOCc1cc(C(F)(F)F)cc2sc(NC(=O)c3cc(Cl)cc(C)c3O)nc12 [drawing 342]	[drawing 342]	
O=C(Nc1ccc(C(F)(F)F)cc1Cl)c1cc(Cl)ccc1O	[drawing 351]	
